Consider two compounds from ChEMBL document CHEMBL4024794 (J Med Chem, 2018).

Molecules are shown by their SMILES. Calls of active or inactive are those of the source. No cut-off for these calls is given here.

The target in assay [1] is T1, Nicotinamide N-methyltransferase (Homo sapiens) (UniProt P40261).
T1 sequence (whole entry): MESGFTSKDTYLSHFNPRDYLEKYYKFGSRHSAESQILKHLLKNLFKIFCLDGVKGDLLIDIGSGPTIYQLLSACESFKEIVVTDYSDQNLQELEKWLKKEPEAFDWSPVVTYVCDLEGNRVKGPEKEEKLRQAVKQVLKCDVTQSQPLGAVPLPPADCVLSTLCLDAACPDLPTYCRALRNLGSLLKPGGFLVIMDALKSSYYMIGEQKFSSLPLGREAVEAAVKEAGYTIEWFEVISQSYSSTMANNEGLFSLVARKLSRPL
Description: Binding affinity to human NNMT (1 to 264 residues) expressed in Escherichia coli BL21 (DE3) assessed as change in enthalpy by isothermal titration calorimetric method

In assay [2] the target is T2, Protein arginine N-methyltransferase 7 (Homo sapiens, UniProt Q9NVM4).
T2 sequence (Q9NVM4 whole entry): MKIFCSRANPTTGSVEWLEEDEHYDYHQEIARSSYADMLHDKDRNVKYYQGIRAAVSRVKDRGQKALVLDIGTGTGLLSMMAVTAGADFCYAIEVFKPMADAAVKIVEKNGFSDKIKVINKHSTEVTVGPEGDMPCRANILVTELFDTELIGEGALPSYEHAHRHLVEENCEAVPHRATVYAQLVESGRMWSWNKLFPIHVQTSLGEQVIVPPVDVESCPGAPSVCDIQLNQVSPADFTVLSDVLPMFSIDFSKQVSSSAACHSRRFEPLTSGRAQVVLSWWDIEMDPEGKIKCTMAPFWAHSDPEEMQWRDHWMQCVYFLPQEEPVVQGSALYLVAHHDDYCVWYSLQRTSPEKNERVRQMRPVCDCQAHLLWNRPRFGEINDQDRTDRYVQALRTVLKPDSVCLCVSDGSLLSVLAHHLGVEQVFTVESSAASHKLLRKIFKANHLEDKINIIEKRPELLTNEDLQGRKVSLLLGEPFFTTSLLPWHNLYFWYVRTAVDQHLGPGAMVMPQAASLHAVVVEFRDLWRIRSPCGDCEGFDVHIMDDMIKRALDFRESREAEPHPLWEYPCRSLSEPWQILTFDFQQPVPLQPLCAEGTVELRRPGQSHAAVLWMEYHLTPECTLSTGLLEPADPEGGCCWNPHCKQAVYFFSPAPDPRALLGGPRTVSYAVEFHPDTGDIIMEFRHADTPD
Nature of the assay: Inhibition of PRMT7 (unknown origin) using [3H]-SAM as co-factor by scintillation proximity assay.

Assay [3] addresses T1, Nicotinamide N-methyltransferase (Homo sapiens). This is another data set of the same source.
Description: Binding affinity to human NNMT (1 to 264 residues) expressed in Escherichia coli BL21 (DE3) assessed as change in entropy by isothermal titration calorimetric method
Assay [4] concerns the target T3, RNA 5'-monophosphate methyltransferase (Homo sapiens, UniProt Q7Z5W3).
T3 sequence (Q7Z5W3 whole entry): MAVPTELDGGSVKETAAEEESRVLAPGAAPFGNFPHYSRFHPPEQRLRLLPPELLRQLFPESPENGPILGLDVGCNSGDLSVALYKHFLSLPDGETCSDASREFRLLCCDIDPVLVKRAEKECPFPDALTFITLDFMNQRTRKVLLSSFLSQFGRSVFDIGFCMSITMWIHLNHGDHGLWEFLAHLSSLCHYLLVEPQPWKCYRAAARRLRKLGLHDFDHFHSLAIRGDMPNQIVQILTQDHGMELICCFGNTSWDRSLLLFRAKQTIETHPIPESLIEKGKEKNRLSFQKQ
Nature of the assay: Inhibition of BCDIN3D (unknown origin) using [3H]-SAM as co-factor by scintillation proximity assay. (In general: SPA uses beads or plates that emit light when radiolabelled molecules are held near them.)

In assay [5] the target is N-lysine methyltransferase SMYD2 (Homo sapiens, UniProt Q9NRG4). The assay can be described thus: Inhibition of SMYD2 (unknown origin) using [3H]-SAM as co-factor by scintillation proximity assay.
N-lysine methyltransferase SMYD2, sequence (Q9NRG4 whole entry): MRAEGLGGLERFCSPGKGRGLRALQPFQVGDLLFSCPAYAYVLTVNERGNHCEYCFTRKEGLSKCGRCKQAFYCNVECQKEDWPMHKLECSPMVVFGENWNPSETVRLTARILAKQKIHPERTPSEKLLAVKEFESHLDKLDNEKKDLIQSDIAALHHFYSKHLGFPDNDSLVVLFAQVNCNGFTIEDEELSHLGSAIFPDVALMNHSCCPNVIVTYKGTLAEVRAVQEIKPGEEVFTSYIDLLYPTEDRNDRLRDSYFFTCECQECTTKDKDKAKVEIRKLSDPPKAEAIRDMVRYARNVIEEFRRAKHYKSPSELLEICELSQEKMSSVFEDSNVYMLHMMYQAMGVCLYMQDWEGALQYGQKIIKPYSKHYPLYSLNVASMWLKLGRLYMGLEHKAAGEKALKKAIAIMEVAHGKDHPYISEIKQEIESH
In assay [6] the target is T4, Nicotinamide N-methyltransferase (Homo sapiens, UniProt P40261).
T4 sequence (P40261 whole entry): T1 sequence (whole entry)
The assay can be described thus: Inhibition of human NNMT (1 to 264 residues) expressed in Escherichia coli BL21 (DE3) using nicotinamide/SAM as substrate/co-factor measured for 20 mins by SAHH-coupled fluorescent assay.

Assay [7] addresses T4, Nicotinamide N-methyltransferase. Nature of the assay: Binding affinity to human NNMT (1 to 264 residues) expressed in Escherichia coli BL21 (DE3) by isothermal titration calorimetric method. On the technique in general: Isothermal titration calorimetry measures the heat released or taken up as one component is titrated into another.
For assay [8], the target named is T1, Nicotinamide N-methyltransferase (Homo sapiens). Nature of the assay: Competitive inhibition of human NNMT (1 to 264 residues) expressed in Escherichia coli BL21 (DE3) at 1 to 250 uM measured for 20 mins in presence of varying concentration of SAM by Lineweaver-Burk plot analysis.
In assay [9] the target is Histone-lysine N-methyltransferase, H3 lysine-79 specific (Homo sapiens, UniProt Q8TEK3). Nature of the assay: Inhibition of DOT1L (unknown origin) after 1 hr by filter-based assay.
Histone-lysine N-methyltransferase, H3 lysine-79 specific, sequence (Q8TEK3 whole entry, the tested form may be a part): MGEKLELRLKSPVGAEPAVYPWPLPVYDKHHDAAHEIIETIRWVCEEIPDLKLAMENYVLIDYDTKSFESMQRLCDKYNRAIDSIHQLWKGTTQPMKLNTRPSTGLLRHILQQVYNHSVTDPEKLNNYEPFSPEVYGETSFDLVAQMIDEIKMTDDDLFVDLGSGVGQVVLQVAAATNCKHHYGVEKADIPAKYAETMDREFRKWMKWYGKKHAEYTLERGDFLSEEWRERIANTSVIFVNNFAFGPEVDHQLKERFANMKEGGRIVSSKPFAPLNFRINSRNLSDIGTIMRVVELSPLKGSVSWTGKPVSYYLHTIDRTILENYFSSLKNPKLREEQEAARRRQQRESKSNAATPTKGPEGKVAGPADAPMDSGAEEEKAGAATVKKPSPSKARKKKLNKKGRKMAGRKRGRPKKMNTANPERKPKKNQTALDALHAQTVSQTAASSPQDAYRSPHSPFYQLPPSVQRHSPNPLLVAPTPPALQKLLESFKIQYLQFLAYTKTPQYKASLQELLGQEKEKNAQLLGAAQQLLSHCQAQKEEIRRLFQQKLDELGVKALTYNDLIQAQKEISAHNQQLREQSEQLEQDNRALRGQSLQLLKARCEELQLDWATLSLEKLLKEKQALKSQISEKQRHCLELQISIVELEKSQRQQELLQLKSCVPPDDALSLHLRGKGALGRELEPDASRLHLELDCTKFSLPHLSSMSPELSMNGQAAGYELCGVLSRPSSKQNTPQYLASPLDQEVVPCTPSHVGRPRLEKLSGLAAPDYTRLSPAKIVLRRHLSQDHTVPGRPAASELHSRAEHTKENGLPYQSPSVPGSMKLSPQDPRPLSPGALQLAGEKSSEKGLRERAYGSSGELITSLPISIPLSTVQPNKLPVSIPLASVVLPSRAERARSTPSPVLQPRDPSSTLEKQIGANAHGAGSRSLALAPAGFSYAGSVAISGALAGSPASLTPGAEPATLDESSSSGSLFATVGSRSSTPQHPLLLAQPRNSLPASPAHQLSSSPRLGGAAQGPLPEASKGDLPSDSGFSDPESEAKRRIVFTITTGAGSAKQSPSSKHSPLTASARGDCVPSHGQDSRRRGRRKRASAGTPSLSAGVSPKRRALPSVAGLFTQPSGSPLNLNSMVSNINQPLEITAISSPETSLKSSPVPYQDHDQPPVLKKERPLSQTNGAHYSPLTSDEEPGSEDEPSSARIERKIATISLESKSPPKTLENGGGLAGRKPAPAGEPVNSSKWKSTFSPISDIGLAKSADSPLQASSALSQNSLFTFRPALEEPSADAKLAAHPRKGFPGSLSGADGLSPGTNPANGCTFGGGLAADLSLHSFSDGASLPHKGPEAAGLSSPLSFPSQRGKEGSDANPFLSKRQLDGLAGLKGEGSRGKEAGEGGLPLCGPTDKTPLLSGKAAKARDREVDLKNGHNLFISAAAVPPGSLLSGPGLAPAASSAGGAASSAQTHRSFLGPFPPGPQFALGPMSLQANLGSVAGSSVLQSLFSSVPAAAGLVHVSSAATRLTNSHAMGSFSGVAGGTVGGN
For assay [10], the target named is T1, Nicotinamide N-methyltransferase (Homo sapiens). Nature of the assay: Nonompetitive inhibition of human NNMT (1 to 264 residues) expressed in Escherichia coli BL21 (DE3) at 1 to 250 uM measured for 20 mins in presence of varying concentration of nicotinamide by Lineweaver-Burk plot analysis.

By IC50 is commonly meant the point on the concentration scale where inhibition reaches its midpoint. Broadly, the Kd is a measure of binding affinity in units of concentration. As to `NC(=O)c1cccc(CCN(CCC[C@H](N)C(=O)O)C[C@H]2O[C@@H](n3cnc4c(N)ncnc43)[C@H](O)[C@@H]2O)c1`, the deltaH in assay [1] was -4.6 kcal/mol. Besides, the IC50 in assay [2] worked out at 20 µM; in [4], 40 µM; in assay [5], 62 µM; in assay [6], 14 µM; in assay [9], 1.3 µM. In addition, the deltaS in [3] worked out at 10 cal/mol/deg. Also, the Kd in assay [7] was found to be 2.7 µM. Further, the inhibition result in [8] and in assay [10] was “Active” throughout.
For `NC(=O)c1cccc(CCN(CC[C@H](N)C(=O)O)C[C@H]2O[C@@H](n3cnc4c(N)ncnc43)[C@H](O)[C@@H]2O)c1`, the deltaH in assay [1] was -2.5 kcal/mol. The compound also had a deltaS in assay [3] of 11.4 cal/mol/deg. In assay [6], this compound came in with an IC50 of 160 µM. In [7], this compound displayed a Kd of 42.8 µM.
